Measured values reported in patent publication US9115065B2 (priority 2004, dated 2015).
“Also recorded” adds a separate entry of the source. Read-outs that look alike come from different tables or passages of the source.

Tests used:
Tacaribe virus [1] = assay: microbe, parasite or virus in culture; assay type: cell-based
Guanarito [2] = assay: microbe, parasite or virus in culture; assay type: cell-based; conditions: Mammarenavirus guanaritoense, HEK-293T, read-out: Antiviral activity vs. pseudotyped viruses: Guanarito
Machupo [3] = assay: microbe, parasite or virus in culture; assay type: cell-based; conditions: Mammarenavirus machupoense, HEK-293T, read-out: Antiviral activity vs. pseudotyped viruses: Machupo
VSV = assay: microbe, parasite or virus in culture; assay type: cell-based; conditions: Vesicular stomatitis virus, HEK-293T, read-out: VSV (μM) (negative control)
Tacaribe = assay: microbe, parasite or virus in culture; assay type: cell-based; conditions: Mammarenavirus tacaribeense, HEK-293T, read-out: Antiviral activity vs. pseudotyped viruses: Tacaribe
icd-GPC [4] = assay type: binding, Junin virus
Junín [5] = assay: microbe, parasite or virus in culture; assay type: cell-based, Junin virus; conditions: Mammarenavirus juninense, HEK-293T, read-out: Antiviral activity vs. pseudotyped viruses: Junín
Guanarito [6] = assay type: cell-based, Guanarito virus; conditions: read-out: Guanarito (Plaque reduction) EC50
Tacaribe virus [7] = tested on: Tacaribe virus; set-up: species or system BALB/c mice; conditions: mouse, in vivo
[8] = mouse, in vivo, ip, 100 mg/kg/day
[9] = in vivo
[10] = tested on: S. typhimurium tester strains TA7007 and TA7006 and TA98
[11] = in vivo; remark: listed apart in the source
Tacaribe virus [12] = assay type: cell-based; conditions: read-out: Tacaribe (Plaque reduction) EC50
Junín [13] = assay type: cell-based, Junin virus; conditions: read-out: Junin (Plaque reduction) EC50
[14] = tested on: drug resistant Tacaribe mutants; assay type: cell-based, Tacaribe virus
Machupo [15] = assay type: cell-based, Machupo virus; conditions: read-out: Machupo (Plaque reduction) EC50
JUNV GPC = JUNV GPC (Junin mammarenavirus, UniProt P26313); assay: cell-based; set-up: species or system Junin virus
JUNV GPC, sequence (P26313 2-58 limits assumed): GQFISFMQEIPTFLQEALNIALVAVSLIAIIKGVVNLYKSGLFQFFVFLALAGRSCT
JUNV GPC, sequence (P26313 59-251 partner limits assumed): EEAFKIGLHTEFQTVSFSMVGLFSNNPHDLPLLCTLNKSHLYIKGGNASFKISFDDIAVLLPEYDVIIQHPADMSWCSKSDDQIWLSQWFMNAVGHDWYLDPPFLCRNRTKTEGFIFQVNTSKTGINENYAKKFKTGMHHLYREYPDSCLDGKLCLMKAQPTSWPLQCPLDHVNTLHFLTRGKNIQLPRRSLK
JUNV GPC, sequence (P26313 252-485 limits assumed): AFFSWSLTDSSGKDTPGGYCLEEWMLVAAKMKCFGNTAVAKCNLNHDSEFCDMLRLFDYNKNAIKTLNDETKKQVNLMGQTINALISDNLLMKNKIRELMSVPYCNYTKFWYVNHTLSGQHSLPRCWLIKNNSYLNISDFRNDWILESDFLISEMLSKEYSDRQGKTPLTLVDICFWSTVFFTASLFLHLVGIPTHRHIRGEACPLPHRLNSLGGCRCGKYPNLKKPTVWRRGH

icd-GPC [16] = assay type: binding, Junin virus; remark: listed apart in the source

Row | Compound | EC50 (Guanarito [2]) | EC50 (Machupo [3]) | EC50 (VSV) | EC50 (Tacaribe) | other results
1 | CC(NC(=O)Nc1ccccc1C(F)(F)F)(C(F)(F)F)C(F)(F)F [Example 97, 1-(2-Trifluoromethylphenyl)-3-(2,2,2-trifluoro-1-methyl-1-trifluoromethylethyl)-urea] | – | – | – | – | EC50 (Tacaribe virus [1]; Mammarenavirus tacaribeense, Vero, read-out: Tacaribe EC50): > 5000 nM
2 | CCC(NC(=O)NNS(=O)(=O)c1cc(C)cc(C)c1)(C(F)(F)F)C(F)(F)F [Compound 109, 1-[1,1-bis(trifluoromethyl)propyl]-3-[(3,5-dimethylphenyl)sulfonylamino] urea] | < 10000 nM | < 10000 nM | > 30 µM | < 1000 nM | –
3 | COc1ccc(-n2cnc3cc(NCc4ccc(C(C)C)cc4)ccc32)cc1 [ST-193, reference compound] | – | – | – | – | displacement of bound ST-375 from icd-GPC (icd-GPC [4]): displaced from icd-GPC in a time- and concentration-dependent manner
4 | CCC(NC(=O)NNS(=O)(=O)c1cc(Br)ccc1OC)(C(F)(F)F)C(F)(F)F [Compound 115, 1-[1,1-bis(trifluoromethyl)propyl]-3-[(5-bromo-2-methoxy-phenyl)sulfonylamino]urea] | < 1000 nM | < 1000 nM | > 30 µM | < 1000 nM | –
5 | CCC(NC(=O)NNS(=O)(=O)c1cc(OC)ccc1OC)(C(F)(F)F)C(F)(F)F [Compound 101, 1-[1,1-bis(trifluoromethyl)propyl]-3-[(2,5-dimethoxyphenyl)sulfonylamino] urea] | < 1000 nM | < 1000 nM | > 30 µM | < 1000 nM | –
6 | CCC(NC(=O)NNS(=O)(=O)c1ccc(-c2csnn2)cc1)(C(F)(F)F)C(F)(F)F [Compound 114, 1-[1,1-bis(trifluoromethyl)propyl]-3-[[4-(thiadiazol-4-yl)phenyl]sulfonylamino]urea] | < 1000 nM | < 1000 nM | > 30 µM | < 1000 nM | EC50 (Junín [5]): < 1000 nM
7 | CCC(NC(=O)NNS(=O)(=O)c1cc(OCC(F)(F)F)ccc1OCC(F)(F)F)(C(F)(F)F)C(F)(F)F [Compound 113, 1-[[2,5-bis(2,2,2-trifluoroethoxy)phenyl]sulfonyl-amino]-3-[1,1-bis(trifluoromethyl)propyl]urea] | < 1000 nM | < 1000 nM | 21 µM | < 1000 nM | –
8 | CCC(NC(=O)NNS(=O)(=O)c1ccc2ccccc2c1)(C(F)(F)F)C(F)(F)F [Compound 102, 1-[1,1-bis(trifluoromethyl)propyl]-3-(2-naphthylsulfonylamino)urea] | < 1000 nM | < 1000 nM | > 20 µM | < 1000 nM | –
9 | CCC(NC(=O)NNS(=O)(=O)c1ccccc1-c1ccccc1)(C(F)(F)F)C(F)(F)F [Compound 105, 1-[1,1-bis(trifluoromethyl)propyl]-3-[(2-phenylphenyl)sulfonylamino] urea] | < 1000 nM | < 1000 nM | > 30 µM | < 1000 nM | –
10 | CCC(NC(=O)NNS(=O)(=O)c1ccc(Br)cc1)(C(F)(F)F)C(F)(F)F [Compound 107, 1-[1,1-bis(trifluoromethyl)propyl]-3-[(4-bromophenyl)sulfonylamino] urea] | < 1000 nM | < 1000 nM | > 30 µM | < 1000 nM | –
11 | CCC(NC(=O)NNS(=O)(=O)c1ccc(Cl)c(Cl)c1)(C(F)(F)F)C(F)(F)F [Compound 106, 1-[1,1-bis(trifluoromethyl)propyl]-3-[(3,4-dichlorophenyl)sulfonylamino]urea] | < 1000 nM | < 1000 nM | > 30 µM | < 1000 nM | –
12 | CCC(NC(=O)NNS(=O)(=O)c1cccc2ccccc12)(C(F)(F)F)C(F)(F)F [Compound 111, 1-[1,1-bis(trifluoromethyl)propyl]-3-(1-naphthylsulfonylamino)urea] | < 1000 nM | < 1000 nM | > 30 µM | < 1000 nM | –
13 | CCC(NC(=O)NNS(=O)(=O)c1c(C)cc(C)cc1C)(C(F)(F)F)C(F)(F)F [Compound 99, 1-[1,1-bis(trifluoromethyl)propyl]-3-[(2,4,6-trimethylphenyl)sulfonylamino] urea] | < 1000 nM | < 1000 nM | > 30 µM | < 1000 nM | –
14 | CCC(NC(=O)NNS(=O)(=O)c1cc(Cl)ccc1OC)(C(F)(F)F)C(F)(F)F [Compound 104, 1-[1,1-bis(trifluoromethyl)propyl]-3-[(5-chloro-2-methoxy-phenyl)sulfonylamino]urea] | < 1000 nM | < 1000 nM | > 30 µM | < 1000 nM | –
15 | CCC(NC(=O)NNS(=O)(=O)c1ccc(-c2ccccc2)cc1)(C(F)(F)F)C(F)(F)F [Compound 116, 1-[1,1-bis(trifluoromethyl)propyl]-3-[(4-phenylphenyl)sulfonylamino] urea] | < 10000 nM | < 1000 nM | > 20 µM | < 1000 nM | –
16 | N-2-(1,1,1,3,3,3-hexafluoro-1-methylpropyl)-2-[(4-difluoromethoxyphenyl)sulfonyl]hydrazine-1-carboxamide [ST-294] | – | – | – | – | EC50 (Guanarito [6]): 1000 nM; efficacy (survival) in Tacaribe infected newborn mice (Tacaribe virus [7]): both survival and a delay in death similar to the drug control; also recorded: significant protection against Tacaribe virus induced disease; CC50 (Vero cells): > 50000 nM; tolerability [8]: well tolerated; PK (rat/oral) ½ life [9]: 2 h; Cmax (serum levels) ([9]; rat, po): 6670 ng/mL; Genotoxicity (Ames test) [10]: negative; PK (newborn mouse/IP) Cmax [11]: 2910 ng/mL; PK (newborn mouse/IP) ½ life [11]: 3 h; displacement of bound ST-375 from icd-GPC (icd-GPC [4]): displaced from icd-GPC in a time- and concentration-dependent manner; EC50 (Tacaribe virus [12]): 100 nM; EC50 (Junín [13]): 300 nM; susceptibility of ST-336 drug resistant Tacaribe variants [14]: all of the mutants elicited cross-resistance; EC50 (Machupo [15]): 300 nM; Tacaribe virus CPE EC50 (Tacaribe virus [1]): 0.066 µg/mL; EC50 (Tacaribe virus [1]; read-out: Tacaribe (CPE) EC50): 120 nM
17 | CCC(NC(=O)NNS(=O)(=O)c1ccc(OC(F)F)cc1)(C(F)(F)F)C(F)(F)F [Compound 108, 1-[1,1-bis(trifluoromethyl)propyl]-3-[[4-(difluoromethoxy)phenyl]sulfonyl-amino]urea] | – | – | – | – | EC50 (Tacaribe virus [1]; Mammarenavirus tacaribeense, Vero, read-out: Tacaribe (result of cytopathic effect assay)): < 1000 nM
18 | CCC(NC(=O)NNS(=O)(=O)c1ccc(C(C)C)cc1)(C(F)(F)F)C(F)(F)F [Compound 103, 1-[1,1-bis(trifluoromethyl)propyl]-3-[(4-isopropylphenyl)sulfonylamino] urea] | < 1000 nM | < 1000 nM | > 20 µM | < 1000 nM | –
19 | CCC(NC(=O)NNS(=O)(=O)c1ccc(C(C)(C)C)cc1)(C(F)(F)F)C(F)(F)F [Compound 100, 1-[1,1-bis(trifluoromethyl)propyl]-3-[(4-tert-butylphenyl)sulfonylamino]urea] | < 1000 nM | < 1000 nM | 19.7 µM | < 1000 nM | –
20 | CCC(NC(=O)NNS(=O)(=O)c1cccc2c(N(C)C)cccc12)(C(F)(F)F)C(F)(F)F [Compound 110, 1-[1,1-bis(trifluoromethyl)propyl]-3-[[5-(dimethylamino)-1-naphthyl]sulfonylamino]urea] | < 10000 nM | < 1000 nM | > 30 µM | < 1000 nM | EC50 (JUNV GPC): 600 nM; EC50 (Junín [5]): < 1000 nM; dansyl fluorescence at 525 nm on binding to solubilized icd-GPC (icd-GPC [16]): increase in a time-dependent manner
21 | CCC(NC(=O)NNS(=O)(=O)c1ccc2c(c1)OCCN2C)(C(F)(F)F)C(F)(F)F [Compound 112, 1-[1,1-bis(trifluoromethyl)propyl]-3-[(4-methyl-2,3-dihydro-1,4-benzoxazin-7-yl)sulfonylamino] urea] | < 10000 nM | < 1000 nM | > 30 µM | < 1000 nM | –
